Assay results published in ChEMBL document CHEMBL4334548, “Discovery of Isoxazole Amides as Potent and Selective SMYD3 Inhibitors” (ACS Med Chem Lett, 2020).
≈ marks a conversion by molar mass, not a printed value.

Assays:
[1] = Solubility of compound by CLND method; assay type: physicochemical
[2] = Permeability of compound; assay type: ADME; details: not told; read-out: permeability
[3] = Oral bioavailability in Sprague-Dawley rat at 2 mg/kg; assay type: ADME, organism-based; details: in vivo; for bioavailability: Sprague-Dawley
[4] = Half life in Sprague-Dawley rat at 1 mg/kg, iv or 2 mg/kg, po; assay type: ADME, organism-based; details: in vivo
[5] = AUC in Sprague-Dawley rat at 2 mg/kg, po; assay type: ADME, organism-based; details: in vivo
[6] = Volume of distribution in Sprague-Dawley rat at 1 mg/kg, iv or 2 mg/kg, po; assay type: ADME, organism-based; details: in vivo
[7] = Half life in Sprague-Dawley rat at 0.5 mg/kg, iv or 2 mg/kg, po; assay type: ADME, organism-based; details: in vivo
[8] = Clearance in Sprague-Dawley rat at 0.5 mg/kg, iv or 2 mg/kg, po; assay type: ADME, organism-based; details: in vivo
[9] = Volume of distribution in Sprague-Dawley rat at 0.5 mg/kg, iv or 2 mg/kg, po; assay type: ADME, organism-based; details: in vivo
[10] = Clearance in Sprague-Dawley rat at 1 mg/kg, iv or 2 mg/kg, po; assay type: ADME, organism-based; details: in vivo

Row | SMILES | solubility kinetic [1] | Papp [2] | also measured
1 | CC(C)(C)CCN[C@H]1CC[C@H](CS(=O)(=O)N2CCC(NC(=O)c3cc(C4CC4)on3)CC2)CC1 | 10 µM (≈ 4.95 µg/mL) | 18 ×10⁻⁶ cm/s | –
2 | Cc1ccc(CN[C@H]2CC[C@H](CS(=O)(=O)N3CCC(NC(=O)c4cc(C5CC5)on4)CC3)CC2)nc1 | 61 µM (≈ 31.5 µg/mL) | 8.9 ×10⁻⁶ cm/s | –
3 | O=C(NC1CCN(S(=O)(=O)C[C@H]2CC[C@H](NCc3cccc(Cl)c3)CC2)CC1)c1cc(C2CC2)on1 | 4 µM (≈ 2.14 µg/mL) | 18 ×10⁻⁶ cm/s | –
4 | O=C(NC1CCN(S(=O)(=O)CCCN2CCCC2)CC1)c1cc(C2CC2)on1 | 410 µM (≈ 168 µg/mL) | 5 ×10⁻⁶ cm/s | –
5 | O=C(NC1CCN(S(=O)(=O)C[C@H]2CC[C@H](NCc3ccccc3F)CC2)CC1)c1cc(C2CC2)on1 | 297 µM (≈ 154 µg/mL) | 32 ×10⁻⁶ cm/s | F [3]: 65%; half-life [4]: 1.7 h; AUC [5]: 87 ng·h/mL; Vd [6]: 9.4 L/kg
6 | O=C(NC1CCN(S(=O)(=O)C[C@H]2CC[C@H](NCCC(F)(F)F)CC2)CC1)c1cc(C2CC2)on1 | 48 µM (≈ 24.3 µg/mL) | 16 ×10⁻⁶ cm/s | –
7 | NCCS(=O)(=O)N1CCC(NC(=O)c2cc(C3CC3)on2)CC1 | 375 µM (≈ 128 µg/mL) | < 1 ×10⁻⁶ cm/s | –
8 | CN(CCCC(F)(F)F)[C@H]1CC[C@H](CS(=O)(=O)N2CCC(NC(=O)c3cc(C4CC4)on3)CC2)CC1 | 14 µM (≈ 7.49 µg/mL) | – | –
9 | CCN1CCC(S(=O)(=O)N2CCC(NC(=O)c3cc(C4CC4)on3)CC2)CC1 | 502 µM (≈ 206 µg/mL) | 5.2 ×10⁻⁶ cm/s | –
10 | O=C(NC1CCN(S(=O)(=O)C[C@H]2CC[C@H](NCc3cc(F)ccn3)CC2)CC1)c1cc(C2CC2)on1 | – | 6.6 ×10⁻⁶ cm/s | –
11 | CCN[C@H]1CC[C@H](CS(=O)(=O)N2CCC(NC(=O)c3cc(C4CC4)on3)CC2)CC1 | 295 µM (≈ 129 µg/mL) | < 0.3 ×10⁻⁶ cm/s | –
12 | Cc1cccc(CN[C@H]2CC[C@H](CS(=O)(=O)N3CCC(NC(=O)c4cc(C5CC5)on4)CC3)CC2)c1 | 21 µM (≈ 10.8 µg/mL) | 17 ×10⁻⁶ cm/s | –
13 | O=C(NC1CCN(S(=O)(=O)C[C@H]2CC[C@H](NCc3ccccc3)CC2)CC1)c1cc(C2CC2)on1 | 1 µM (≈ 0.501 µg/mL) | – | half-life [7]: 3.6 h; bioavailability [3]: 79%; AUC ([5]; Sprague-Dawley, read-out: AUC): 149 ng·h/mL; clearance [8]: 90 mL/min/kg; Vd [9]: 16.1 L/kg
14 | O=C(NC1CCN(S(=O)(=O)c2ccc(CN3CCCC3)cc2)CC1)c1cc(C2CC2)on1 | 122 µM (≈ 55.9 µg/mL) | 13 ×10⁻⁶ cm/s | half-life [7]: 1.7 h; AUC ([5]; Sprague-Dawley, read-out: AUC): 295 ng·h/mL; clearance [8]: 68 mL/min/kg; Vd [9]: 6.7 L/kg
15 | CN1CCC(S(=O)(=O)N2CCC(NC(=O)c3cc(C4CC4)on3)CC2)CC1 | 474 µM (≈ 188 µg/mL) | 5.6 ×10⁻⁶ cm/s | –
16 | O=C(NC1CCN(S(=O)(=O)C[C@H]2CC[C@H](NCc3cccc(F)c3)CC2)CC1)c1cc(C2CC2)on1 | 277 µM (≈ 144 µg/mL) | 20 ×10⁻⁶ cm/s | –
17 | CCN(CCCC(F)(F)F)[C@H]1CC[C@H](CS(=O)(=O)N2CCC(NC(=O)c3cc(C4CC4)on3)CC2)CC1 | 53 µM (≈ 29.1 µg/mL) | 41 ×10⁻⁶ cm/s | –
18 | N[C@H]1CC[C@@H](S(=O)(=O)N2CCC(NC(=O)c3cc(C4CC4)on3)CC2)CC1 | 420 µM (≈ 167 µg/mL) | < 1 ×10⁻⁶ cm/s | –
19 | O=C(NC1CCN(S(=O)(=O)c2ccc(CN3CCCCC3)cc2)CC1)c1cc(C2CC2)on1 | 26 µM (≈ 12.3 µg/mL) | 7.9 ×10⁻⁶ cm/s | –
20 | O=C(NC1CCN(S(=O)(=O)C2CCNCC2)CC1)c1cc(C2CC2)on1 | 515 µM (≈ 197 µg/mL) | 0.69 ×10⁻⁶ cm/s | half-life [7]: 2.7 h; bioavailability [3]: 27%; AUC ([5]; Sprague-Dawley, read-out: AUC): 123 ng·h/mL; clearance [8]: 37 mL/min/kg; Vd [9]: 4.5 L/kg
21 | CCS(=O)(=O)N1CCC(NC(=O)c2cc(C3CC3)on2)CC1 | 306 µM (≈ 100 µg/mL) | 24 ×10⁻⁶ cm/s | –
22 | CCCN[C@H]1CC[C@H](CS(=O)(=O)N2CCC(NC(=O)c3cc(C4CC4)on3)CC2)CC1 | 143 µM (≈ 64.7 µg/mL) | 3.5 ×10⁻⁶ cm/s | –
23 | O=C(NC1CCN(S(=O)(=O)C[C@H]2CC[C@H](NCCCC(F)(F)F)CC2)CC1)c1cc(C2CC2)on1 | 9 µM (≈ 4.69 µg/mL) | 14 ×10⁻⁶ cm/s | half-life [7]: 12.8 h; bioavailability [3]: 79%; AUC ([5]; Sprague-Dawley, read-out: AUC): 676 ng·h/mL; clearance [8]: 20 mL/min/kg; Vd [9]: 18.9 L/kg
24 | O=C(NC1CCN(S(=O)(=O)C2CCNC2)CC1)c1cc(C2CC2)on1 (stereo not given) | 406 µM (≈ 150 µg/mL) | 2.4 ×10⁻⁶ cm/s | –

Row | SMILES | solubility kinetic [1] | Papp [2] | also measured
25 | CN(C)[C@H]1CC[C@H](CS(=O)(=O)N2CCC(NC(=O)c3cc(C4CC4)on3)CC2)CC1 | 126 µM (≈ 55.3 µg/mL) | < 1 ×10⁻⁶ cm/s | –
26 | N[C@H]1CC[C@H](S(=O)(=O)N2CCC(NC(=O)c3cc(C4CC4)on3)CC2)CC1 | 329 µM (≈ 130 µg/mL) | < 1 ×10⁻⁶ cm/s | –
27 | O=C(NC1CCN(S(=O)(=O)[C@H]2CC[C@H](NCCCC(F)(F)F)CC2)CC1)c1cc(C2CC2)on1 | – | – | bioavailability [3]: 86%; half-life [4]: 8.6 h; clearance [10]: 20 mL/min/kg; AUC ([5]; Sprague-Dawley, read-out: AUC): 967 ng·h/mL; Vd [6]: 12.5 L/kg
28 | N[C@H]1CC[C@H](CS(=O)(=O)N2CCC(NC(=O)c3cc(C4CC4)on3)CC2)CC1 | 297 µM (≈ 122 µg/mL) | < 1 ×10⁻⁶ cm/s | –
29 | O=C(NC1CCN(S(=O)(=O)C[C@H]2CC[C@H](NCc3cccnc3)CC2)CC1)c1cc(C2CC2)on1 | 194 µM (≈ 97.3 µg/mL) | 5.5 ×10⁻⁶ cm/s | –
30 | CN[C@H]1CC[C@H](CS(=O)(=O)N2CCC(NC(=O)c3cc(C4CC4)on3)CC2)CC1 | 297 µM (≈ 126 µg/mL) | < 1 ×10⁻⁶ cm/s | –
31 | NCCCCS(=O)(=O)N1CCC(NC(=O)c2cc(C3CC3)on2)CC1 | 385 µM (≈ 143 µg/mL) | < 1 ×10⁻⁶ cm/s | –
32 | CCCCN[C@H]1CC[C@H](CS(=O)(=O)N2CCC(NC(=O)c3cc(C4CC4)on3)CC2)CC1 | 234 µM (≈ 109 µg/mL) | 6.8 ×10⁻⁶ cm/s | –
33 | O=C(NC1CCN(S(=O)(=O)C[C@H]2CC[C@H](NCc3ccccn3)CC2)CC1)c1cc(C2CC2)on1 | 52 µM (≈ 26.1 µg/mL) | 6.4 ×10⁻⁶ cm/s | –
34 | NCc1ccc(S(=O)(=O)N2CCC(NC(=O)c3cc(C4CC4)on3)CC2)cc1 | 295 µM (≈ 119 µg/mL) | 5.2 ×10⁻⁶ cm/s | half-life [7]: 0.2 h; clearance [8]: 311 mL/min/kg; Vd [9]: 2.3 L/kg
35 | O=C(NC1CCN(S(=O)(=O)C[C@H]2CC[C@H](NCc3ccc(F)cn3)CC2)CC1)c1cc(C2CC2)on1 | 141 µM (≈ 73.3 µg/mL) | 19 ×10⁻⁶ cm/s | bioavailability [3]: 59%; half-life [4]: 10.8 h; clearance [10]: 17 mL/min/kg; AUC ([5]; Sprague-Dawley, read-out: AUC): 578 ng·h/mL; Vd [6]: 12 L/kg
36 | O=C(NC1CCN(S(=O)(=O)C[C@H]2CC[C@H](NCc3ccc(Cl)cn3)CC2)CC1)c1cc(C2CC2)on1 | 14 µM (≈ 7.51 µg/mL) | 22 ×10⁻⁶ cm/s | –
37 | O=C(NC1CCN(S(=O)(=O)C[C@H]2CC[C@H](NCc3ccncc3)CC2)CC1)c1cc(C2CC2)on1 | 26 µM (≈ 13 µg/mL) | 4.5 ×10⁻⁶ cm/s | –
38 | O=C(NC1CCN(S(=O)(=O)c2ccc(CN3CCC3)cc2)CC1)c1cc(C2CC2)on1 | 302 µM (≈ 134 µg/mL) | 16 ×10⁻⁶ cm/s | –
39 | Cc1ccc(CN[C@H]2CC[C@H](CS(=O)(=O)N3CCC(NC(=O)c4cc(C5CC5)on4)CC3)CC2)cc1 | 10 µM (≈ 5.15 µg/mL) | 14 ×10⁻⁶ cm/s | –
40 | CN(C)Cc1ccc(S(=O)(=O)N2CCC(NC(=O)c3cc(C4CC4)on3)CC2)cc1 | 130 µM (≈ 56.2 µg/mL) | 20 ×10⁻⁶ cm/s | –
41 | O=C(NC1CCN(S(=O)(=O)C[C@H]2CC[C@H](NCc3cncc(F)c3)CC2)CC1)c1cc(C2CC2)on1 | 12 µM (≈ 6.24 µg/mL) | 11 ×10⁻⁶ cm/s | –
42 | O=C(NC1CCN(S(=O)(=O)C[C@H]2CC[C@H](NCc3ccc(Cl)cc3)CC2)CC1)c1cc(C2CC2)on1 | 6 µM (≈ 3.21 µg/mL) | 44 ×10⁻⁶ cm/s | bioavailability [3]: 70%; half-life [4]: 7.3 h; clearance [10]: 36 mL/min/kg; AUC ([5]; Sprague-Dawley, read-out: AUC): 365 ng·h/mL; Vd [6]: 14.7 L/kg
43 | O=C(NC1CCN(S(=O)(=O)C[C@H]2CC[C@H](NCc3ccc(F)cc3)CC2)CC1)c1cc(C2CC2)on1 | 3 µM (≈ 1.56 µg/mL) | – | –
44 | NC[C@H]1CC[C@H](S(=O)(=O)N2CCC(NC(=O)c3cc(C4CC4)on3)CC2)CC1 | 479 µM (≈ 197 µg/mL) | < 1 ×10⁻⁶ cm/s | –
45 | Cc1ccccc1CN[C@H]1CC[C@H](CS(=O)(=O)N2CCC(NC(=O)c3cc(C4CC4)on3)CC2)CC1 | 15 µM (≈ 7.72 µg/mL) | – | –
46 | O=C(NC1CCN(S(=O)(=O)C[C@H]2CC[C@H](NCc3ccccc3Cl)CC2)CC1)c1cc(C2CC2)on1 | 6 µM (≈ 3.21 µg/mL) | 20 ×10⁻⁶ cm/s | –
47 | CC(C)(C)CN[C@H]1CC[C@H](CS(=O)(=O)N2CCC(NC(=O)c3cc(C4CC4)on3)CC2)CC1 | 367 µM (≈ 176 µg/mL) | 14 ×10⁻⁶ cm/s | –
48 | CC(C)CN[C@H]1CC[C@H](CS(=O)(=O)N2CCC(NC(=O)c3cc(C4CC4)on3)CC2)CC1 | 434 µM (≈ 203 µg/mL) | 6.1 ×10⁻⁶ cm/s | –
